This note sets out measurements from patent publication US6747056B2, “K99-5041 substance and production thereof” (The Kitasato Institute, priority 2002, dated 2004).

Data set [1] concerns the target T1, Lanosterol synthase of human origin (Homo sapiens, UniProt P48449).
T1 construct: made in house; host or cells: lanosterol synthase deficient yeast GIL77 (GAPDH promoter); cell-free extract
T1 sequence (P48449 1-732): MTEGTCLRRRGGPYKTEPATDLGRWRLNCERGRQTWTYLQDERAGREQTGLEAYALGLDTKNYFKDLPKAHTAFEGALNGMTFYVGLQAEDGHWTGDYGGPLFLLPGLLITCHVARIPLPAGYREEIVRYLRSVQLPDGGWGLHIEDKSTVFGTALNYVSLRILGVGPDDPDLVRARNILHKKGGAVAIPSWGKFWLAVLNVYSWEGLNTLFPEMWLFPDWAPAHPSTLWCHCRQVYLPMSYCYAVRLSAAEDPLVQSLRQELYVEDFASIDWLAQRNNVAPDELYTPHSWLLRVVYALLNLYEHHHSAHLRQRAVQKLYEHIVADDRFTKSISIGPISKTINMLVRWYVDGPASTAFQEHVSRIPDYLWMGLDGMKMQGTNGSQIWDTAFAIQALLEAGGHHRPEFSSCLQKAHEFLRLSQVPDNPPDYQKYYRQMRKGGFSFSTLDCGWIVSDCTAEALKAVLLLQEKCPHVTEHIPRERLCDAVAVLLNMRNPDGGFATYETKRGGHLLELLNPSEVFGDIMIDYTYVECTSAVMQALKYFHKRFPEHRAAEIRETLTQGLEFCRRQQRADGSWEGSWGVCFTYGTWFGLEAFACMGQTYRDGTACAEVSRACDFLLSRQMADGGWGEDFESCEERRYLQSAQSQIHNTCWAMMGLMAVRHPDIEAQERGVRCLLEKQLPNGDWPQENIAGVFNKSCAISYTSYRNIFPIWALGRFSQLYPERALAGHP
Briefly: Inhibitory action against lanosterol synthase of human origin (cell-free extract of transformed yeast, [14C](3S)-2,3-oxidosqualene substrate). Type of data set: biochemical. The settings on record: human lanosterol synthase expressed in yeast GIL77, cell-free extract 1 mg protein; 37° C., 60 minutes; substrate 0.17-0.42 μM; read-out: 50% inhibition concentration (IC50) for lanosterol synthase activity. The procedure:
(1) Inhibitory Action Against Lanosterol Synthase of Human Origin
Enzyme origin used is as follows. […] The thus obtained cell-free extract derived from transformed yeast was used.
The above transformed yeast was homogenized in buffer A [0.1 M potassium-phosphate buffer solution (pH 7.4), 0.45 M sucrose, 1 mM EDTA and 1 mM dithiothreitol] in the presence of acid treated glass beads using Waring blender [Type 500ACD, Sakuma Seisakusho Co., Japan]. Supernatant obtained by centrifugation, 8600×g, was prepared to make protein concentration of 10 mg/ml by adding the buffer A hereinabove to prepare the cell-free extract.
Assay of lanosterol synthase was performed as follows.
Subsequently, 6% potassium hydroxide/ethanol was added thereto to terminate the reaction, and the mixture was saponificated by incubating at 37° C. for 10 minutes, added cyclohexane 2 ml and stirred well. The cyclohexane layer 1.6 ml was dried up, spotted on TLC plate [silica gel plate (with concentration zone), Merck Inc., U.S.A., thickness 0.25 mm: Art. […] Next, amounts of unreacted [^14C](3S)-2,3-oxidosqualene and generated [^14C]lanosterol were quantitatively assayed using the photo image analyzer BAS-1500 (Fuji Photo Film Co., Japan) to calculate inhibition rate of lanosterol synthesis.

The nature of a further data set: Solubility in solvent. Type of data set: physicochemical. The settings on record: for Solubility in solvent: organic solvents: methanol, ethanol, acetonitrile, ethyl acetate, chloroform and dimethyl sulfoxide.
The nature of data set [2]: Grouping for acidic, neutral and basic. Type of data set: physicochemical.

Consider `CC1=NCC/C1=C\CCCCCCCCCCCCCC(C)C` [K99-5041-C1x substance], for which the IC50 in data set [1] is 15 µM. Also, in “Solubility in solvent”, the “Solubility in solvent: organic solvents” value is recorded as “soluble” and the “Solubility in solvent: water” value is given as “insoluble”. In addition, in data set [2], the “Grouping for acidic, neutral and basic” value is “Weak basic substance”.
For `CCCCCCCCCCCCCCCC/C=C1\CCN=C1C` [K99-5041-C2x substance], the IC50 in data set [1] worked out at 18 µM. Moreover, in the data set “Solubility in solvent”, the “Solubility in solvent: organic solvents” value is recorded as “soluble” and the “Solubility in solvent: water” value is recorded as “insoluble”. For the same compound, the “Grouping for acidic, neutral and basic” value in data set [2] is reported as “Weak basic substance”.
